Where a name gives a salt, the structure may show the parent alone. Read-outs that look alike come from different tables or passages of the source.
Tests used:
[1] = Log P (octanol-water partition coefficient) of flexibilizer agents

Molecule	logP (physchem)	logP (physchem; octanol/water)	also measured
OCCOCCO [FA10, 2,2′-oxydiethanol, reference compound]	-1.47		
OCCOc1ccccc1 [FA6, 2-phenoxyethanol]	1.1		
CCCCC(CC)CO (stereo not shown) [FA7, 2-ethyl-1-hexanol]		2.73	
2,3-dimethylpropanediol [FA2]			Log P [1]: 0.13
COC(=O)c1ccc(O)cc1 [FA9, Methyl-4-hydroxybenzoate sodium salt, reference compound]	-1.34		
OCCCCCO [FA3, 1,5-pentanediol]		0.27	
CCCCC(O)CO (stereo not shown) [FA4, 1,2-hexanediol]		0.69	
OCCO [FA8, Ethylene glycol, reference compound]	-1.2		
CC(O)CCO (stereo not shown) [FA1, 1,3-butanediol]	-0.29		
OCCCCCCO [FA5, 1,6-hexanediol]		0.76	
